Laboratory results: patent US11555036B2, “FGFR4 inhibitor, preparation method therefor and pharmaceutical use thereof” (Abbisko Therapeutics Co., Ltd., priority 2016, dated 2023)

Key:
[1] = test system: Huh7 hepatocellular carcinoma cells; assay: FGFR4 cell proliferation experiment, Cell Titer Glo (CTG); assay type: cell-based; settings: Homo sapiens, Huh-7, 72 h, HuH-7 cells, 3 days; for IC50: concentration leading to absolute half growth inhibition; for EC50: concentration leading to half maximal growth inhibition
Description: II. FGFR4 Cell Proliferation Experiment
Cell Titer Glo (CTG) experiment was used in the present invention to evaluate the functional effects of the compounds on cell proliferation. […] Compound-mediated inhibition of cell proliferation/survival was assessed by quantification of cellular ATP levels using CTG reagent (Promega, #G7573). The specific experimental procedure was as follows:
2. 10 μL of medium containing a compound concentration of 10 fold of its final test concentration was added;
3. The dose effect was evaluated by a 5-fold serial dilution of the test compound, starting from 10 μM.
4. After cells incubation for 3 days at 37° C. under 5% CO2, the effect of the inhibitor on cell proliferation was quantified after adding 50 μL of CTG and testing with luminescence.

FGFR4 = FGFR4 (Homo sapiens, UniProt P22455); assay: FGFR4 Caliper Assay (in vitro biochemical kinase analysis of FGFR4); settings: read-out: Enzymatic activity FGFR4 IC50
Sequence of FGFR4 (P22455 22-802): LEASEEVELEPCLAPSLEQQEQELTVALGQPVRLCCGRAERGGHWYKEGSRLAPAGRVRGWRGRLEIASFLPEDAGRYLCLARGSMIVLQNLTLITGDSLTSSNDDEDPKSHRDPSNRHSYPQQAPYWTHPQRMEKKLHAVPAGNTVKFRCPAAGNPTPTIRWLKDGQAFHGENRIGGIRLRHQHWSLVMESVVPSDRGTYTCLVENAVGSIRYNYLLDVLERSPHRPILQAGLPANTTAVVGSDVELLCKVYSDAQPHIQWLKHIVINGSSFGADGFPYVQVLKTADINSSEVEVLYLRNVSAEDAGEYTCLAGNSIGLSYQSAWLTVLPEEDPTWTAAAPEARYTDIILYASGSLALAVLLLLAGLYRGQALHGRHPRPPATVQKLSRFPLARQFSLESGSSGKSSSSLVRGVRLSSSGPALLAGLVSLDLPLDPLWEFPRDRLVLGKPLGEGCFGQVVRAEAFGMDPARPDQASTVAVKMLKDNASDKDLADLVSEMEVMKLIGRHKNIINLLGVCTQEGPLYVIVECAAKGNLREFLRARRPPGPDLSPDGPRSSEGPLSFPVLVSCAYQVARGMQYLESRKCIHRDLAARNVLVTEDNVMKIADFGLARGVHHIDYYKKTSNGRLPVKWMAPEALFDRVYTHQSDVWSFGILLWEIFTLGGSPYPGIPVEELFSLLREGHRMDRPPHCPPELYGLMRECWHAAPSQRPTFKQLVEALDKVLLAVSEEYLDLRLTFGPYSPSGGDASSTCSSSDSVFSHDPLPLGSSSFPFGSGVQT
Description: I. In Vitro Biochemical Kinase Analysis of FGFR4
FGFR4 Caliper Assay was used in the present invention to determine the inhibitory activities of the compounds against FGFR4. The detailed experimental procedure was as follows.
2. A reaction system is a mixture solution of 50 mM HEPES, pH 7.5, 1 mM DTT, 0.02% Tween 20, 0.02% BSA, 0.6% DMSO, 10 mM beta glycerol phosphate and 10 μM sodium orthovanadate and 16 mM MgCl2.
3. The reaction system was incubated at 30° C. for 40 minutes.
4. The reaction was terminated by adding a stop solution (100 mM HEPES, pH 7.5, 5% DMSO, 0.1% Caliper coating reagent, 10 mM EDTA and 0.015% Brij35).
5. The culture plate with the terminated kinase reaction was transferred to the Caliper LC 3000 workstation to read the data, the phosphorylated and unphosphorylated peptides were separated by using the Caliper microfluid migration shift technique, and the analyte was transferred by allowing a constant buffer flow through the chip, the migration of the substrate peptide was monitored by the labeled fluorescent signal, and the kinase activity was calculated by using the amount of the phosphate-based peptide formed.
6. Finally, IC50 values were determined by non-linear regression analysis of percent inhibition at different compound concentrations.

| SMILES | IC50 [1] [nM] | EC50 [1] [nM] | IC50 (FGFR4) [nM] |
| --- | --- | --- | --- |
| C=CC(=O)N[C@H]1COC[C@H]1Nc1ncc2cc(-c3c(Cl)c(OC)cc(OC)c3Cl)ncc2n1 (racemic) [Example 118, (±)—N-((3R,4S)-4-((6-(2,6-dichloro-3,5-dimethoxyphenyl)pyrido[3,4-d]pyrimidin-2-yl)amino)tetrahydrofuran-3-yl)acrylamide] | 333 | 179 | 80.5 |
| C=CC(=O)N[C@H]1CCOC[C@H]1Nc1ncc2cc(-c3c(Cl)c(OC)cc(OC)c3Cl)ccc2n1 [BLU-554] | 126 | 27 | 18 |
| C=CC(=O)Nc1cccc(C)c1Nc1ncc2cc(-c3c(Cl)c(OC)cc(OC)c3Cl)ccc2n1 [BLU-9931] | 1360 | 549 | – |
| C=CC(=O)Nc1cccc(C)c1Nc1cc2c(=O)n(C)c(-c3c(Cl)c(OC)cc(OC)c3Cl)cc2cn1 [Example 1, N-(2-((7-(2,6-dichloro-3,5-dimethoxyphenyl)-6-methyl-5-oxo-5,6-dihydro-2,6-naphthyridin-3-yl)amino)-3-methylphenyl)acrylamide] | 2450 | 1530 | 13.9 |
| C=CC(=O)Nc1cccc(C)c1Nc1cc2c(=O)[nH]c(-c3c(Cl)c(OC)cc(OC)c3Cl)nc2cn1 [Example 5, N-(2-((2-(2,6-dichloro-3,5-dimethoxyphenyl)-4-oxo-3,4-dihydropyrido[3,4-d]pyrimidin-6-yl)amino)-3-methyl-phenyl)acrylamide] | > 10000 | > 10000 | 26.1 |
| C=CC(=O)Nc1cccc(C)c1Nc1cc2c(=O)oc(-c3c(Cl)c(OC)cc(OC)c3Cl)cc2cn1 [Example 7, N-(2-((3-(2,6-dichloro-3,5-dimethoxyphenyl)-1-oxo-1 H-pyrano[4,3-c]pyridin-7-yl)amino)-3-methylphenyl) acrylamide] | > 10000 | > 10000 | 28.9 |
| C=CC(=O)Nc1cccc(C)c1Nc1cc2c(OC)nc(-c3c(Cl)c(OC)cc(OC)c3Cl)cc2cn1 [Example 9, N-(2-((7-(2,6-dichloro-3,5-dimethoxyphenyl)-5-dimethoxy-2,6-naphthyridin-3-yl)amino)-3-methylphenyl)acryl-amide] | 1050 | 89 | 138 |
| C=CC(=O)Nc1cccc(C)c1Nc1cc2c(OC)nc(-c3c(Cl)c(OC)cc(OC)c3Cl)nc2cn1 [Example 10, N-(2-((2-(2,6-dichloro-3,5-dimethoxyphenyl)-4-methoxy-pyrido[3,4-d]pyrimidin-6-yl)amino)-3-methylphenyl) acrylamide] | 4820 | 3520 | 105 |
| C=CC(=O)Nc1cccc(C)c1Nc1cc2c(=O)n(CCOC)c(-c3c(Cl)c(OC)cc(OC)c3Cl)nc2cn1 [Example 11, N-(2-((2-(2,6-dichloro-3,5-dimethoxyphenyl)-3-(2-methoxyethyl)-4-oxo-3,4-dihydropyrido[3,4-d]pyrimidin-6-yl)amino)-3-methylphenyl) acrylamide] | 4720 | 4720 | 101 |
| C=CC(=O)Nc1cn(C)nc1Nc1ncc2cc(-c3c(Cl)c(OC)cc(OC)c3Cl)ncc2n1 [Example 64, N-(3-((6-(2,6-dichloro-3,5-dimethoxyphenyl)pyrido[3,4-d]pyrimidin-2-yl)amino)-1-methyl-1H-pyrazol-4-yl) acrylamide] | 268 | 54.2 | 53.3 |
| C=CC(=O)Nc1cc(N2CCN(C)CC2)cc(C)c1Nc1cc2c(=O)n(C)c(-c3c(Cl)c(OC)cc(OC)c3Cl)nc2cn1 [Example 75, N-(2-((2-(2,6-dichloro-3,5-dimethoxyphenyl)-3-methyl-4-oxo-3,4-dihydropyrido [3,4-d]pyrimidin-6-yl)amino)-3-methyl-5-(4-methyl-piperazin-1-yl)phenyl) acrylamide] | > 10000 | > 10000 | 247 |
| C=CC(=O)Nc1cn(C)nc1Nc1ncc2cc(-c3c(Cl)c(OC)cc(OC)c3Cl)nc(NCC3CC3)c2n1 [Example 76, N-(3-((8-((cyclopropylmethyl)amino)-6-(2,6-dichloro-3,5-dimethoxyphenyl)pyrido[3,4-d]pyrimidin-2-yl)amino)-1-methyl-1H-pyrazol-4-yl)acrylamide] | 62.6 | 23.8 | 24 |
| [2H]C([2H])([2H])Oc1cc(OC([2H])([2H])[2H])c(Cl)c(-c2cc3cnc(N[C@@H]4COC[C@@H]4NC(=O)C=C)nc3c(NCC3CC3)n2)c1Cl [Example 425, N-((3R,4S)-4-((8-((cyclopropylmeth-yl)amino)-6-(2,6-dichloro-3,5-bis(meth-oxy-d3)phenyl)pyrido[3,4-d]pyrimi-din-2-yl)amino)tetrahydrofuran-3-yl)acrylamide] | – | – | 7.7 |
| C=CC(=O)N[C@H]1COC[C@H]1Nc1ncc2cc(-c3c(Cl)c(OC)cc(OC)c3Cl)nc(NCCN(C)C)c2n1 [Example 431, N-((3R,4S)-4-((6-(2,6-dichloro-3,5-di-methoxyphenyl)-8-((2-(dimethylami-no)ethyl)amino)pyrido[3,4-d]pyrimi-din-2-yl)amino)tetrahydrofuran-3-yl) acrylamide] | – | – | 519 |
| C=CC(=O)N[C@H]1COC[C@H]1Nc1ncc2cc(-c3c(Cl)c(OC)cc(OC)c3Cl)nc(N(C)C)c2n1 [Example 436, N-((3R,4S)-4-((6-(2,6-dichloro-3,5-di-methoxyphenyl)-8-(dimethylamino)pyrido[3,4-d]pyrimidin-2-yl)amino)tetrahydrofuran-3-yl)acrylamide] | – | – | > 10000 |
| C=CC(=O)N[C@H]1COC[C@H]1Nc1ncc2cc(-c3c(Cl)c(OC)cc(OC)c3Cl)nc(NCC3CCOC3)c2n1 (stereo partly drawn) [Example 439, N-((3R,4S)-4-((6-(2,6-dichloro-3,5-di-methoxyphenyl)-8-(((tetrahydrofuran-3-yl)methyl)amino)pyrido[3,4-d]py-rimidin-2-yl)amino)tetrahydrofuran-3-yl)acrylamide] | – | – | 4.6 |
| C=CC(=O)N[C@H]1COC[C@H]1Nc1ncc2cc(-c3c(Cl)c(OC)cc(OC)c3Cl)nc(NC3CCOCC3)c2n1 [Example 444, N-((3R,4S)-4-((6-(2,6-dichloro-3,5-di-methoxyphenyl)-8-((tetrahydro-2H-pyran-4-yl)amino)pyrido[3,4-d]py-rimidin-2-yl)amino)tetrahydrofuran-3-yl)acrylamide] | – | – | 7 |
| C=CC(=O)N[C@H]1COC[C@H]1Nc1ncc2cc(-c3c(Cl)c(OC)cc(OC)c3Cl)nc(NCCCCN(C)C)c2n1 [Example 465, N-((3R,4S)-4-((6-(2,6-dichloro-3,5-di-methoxyphenyl)-8-((4-(dimethylamino)butyl)amino)pyrido[3,4-d]pyrimi-din-2-yl)amino)tetrahydrofuran-3-yl) acrylamide] | – | – | 46.4 |
| C=CC(=O)N[C@H]1COC[C@H]1Nc1ncc2cc(-c3c(Cl)c(OC)cc(OC)c3Cl)nc(C3CC3)c2n1 [Example 609, N-((3R,4S)-4-((8-cyclopropyl-6-(2,6-dichloro-3,5-dimethoxyphenyl)pyri-do[3,4-d]pyrimidin-2-yl)amino)tetra-hydrofuran-3-yl)acrylamide] | 56.1 | 36.6 | – |
| C=CC(=O)N[C@H]1COC[C@H]1Nc1ncc2cc(-c3c(Cl)c(OC)cc(OC)c3Cl)nc(OCc3cc(OC)cc(OC)c3)c2n1 [Example 755, N-((3R,4S)-4-((6-(2,6-dichloro-3,5-dimethoxyphenyl)-8-((3,5-dimethoxy-benzyl)oxy)pyrido[3,4-d]pyrimidin-2-yl)amino)tetrahydrofuran-3-yl) acrylamide] | – | – | 43 |
| C=CC(=O)N[C@H]1COC[C@H]1Nc1ncc2cc(-c3c(F)ccc(OC)c3F)nc(NC)c2n1 [Example 777, N-((3R,4S)-4-((6-(2,6-difluoro-3-meth-oxyphenyl)-8-(methylamino)pyri-do[3,4-d]pyrimidin-2-yl)amino)tetra-hydrofuran-3-yl)acrylamide] | 660 | 651 | – |
| C=CC(=O)N[C@H]1COC[C@H]1Nc1ncc2cc(-c3c(Cl)c(OC)cc(OC)c3Cl)nc(N3CC[C@](C)(O)C3)c2n1 [Example 778, N-((3R,4S)-4-((6-(2,6-dichloro-3,5-dimethoxyphenyl)-8-((S)-3-hydroxy-3-methylpyrrolidin-1-yl)pyrido[3,4-d]py-rimidin-2-yl)amino)tetrahydrofuran-3-yl)acrylamide] | 11.2 | 9.5 | – |
| C=CC(=O)N[C@H]1COC[C@H]1Nc1ncc2cc(-c3c(Cl)c(OC)cc(OC)c3Cl)nc(N3CC[C@@](C)(O)C3)c2n1 [Example 779, N-((3R,4S)-4-((6-(2,6-dichloro-3,5-dimethoxyphenyl)-8-((R)-3-hydroxy-3-methylpyrrolidin-1-yl)pyrido[3,4-d]pyrimidin-2-yl)amino)tetrahydro-furan-3-yl)acrylamide] | 8.6 | 7.5 | – |
